Literature values, collected in patent publication US10695734B2, “Microcapsule comprising a polyester-urethane shell and a hydrophilic core material” (BASF SE, priority 2015, dated 2020).
Where a name gives a salt, the structure may show the parent alone.

Settings: at 20° C.

Structure (SMILES) | water solubility
O=C(O)CNCP(=O)(O)O [glyphosate potassium salt] | > 500 mg/mL
COc1c(Cl)ccc(Cl)c1C(=O)O [dicamba sodium salt] | > 100 mg/mL
